Source: patent US7897602B2, “Indolinone compounds as kinase inhibitors” (Development Center for Biotechnology, priority 2009, dated 2011)

How the values were obtained:
Format in all cases: biochemical
c-Met kinase = molecular target: T1, c-Met kinase (Homo sapiens, UniProt P08581); test: c-Met kinase assay (33P incorporation into Poly(Glu-Tyr)); details: 500 nM test compound
T1 construct: recombinant N-terminal 6×His-tagged c-Met kinase domain construct expressed from baculovirus; 6xHis (N); made in house
T1 sequence (P08581 1078-1345 limits assumed): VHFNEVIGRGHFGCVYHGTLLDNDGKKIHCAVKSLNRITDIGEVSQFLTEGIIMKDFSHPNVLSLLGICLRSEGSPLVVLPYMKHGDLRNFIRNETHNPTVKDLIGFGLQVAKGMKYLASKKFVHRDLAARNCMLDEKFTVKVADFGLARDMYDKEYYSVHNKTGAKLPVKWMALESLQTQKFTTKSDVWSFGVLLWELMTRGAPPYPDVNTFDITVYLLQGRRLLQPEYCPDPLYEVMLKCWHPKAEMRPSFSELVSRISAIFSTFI
Outline: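 Recombinant N-terminal 6×His-tagged c-Met kinase domain (baculovirus-expressed, 5 ng) acted on Poly(Glu-Tyr) 4:1 with 100 μM ATP plus [33P]-γ-ATP in MOPS pH 7.0 buffer, 30 min at 30° C. Compound was at 500 nM. Filter-retained radioactivity was compared with the DMSO control to give percent inhibition.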

Aurora B kinase = molecular target: T2, Aurora B kinase (Homo sapiens, UniProt Q96GD4); test: Aurora B kinase assay ([γ-33P]ATP, CHOCKtide substrate); details: for inhibition at 1 µM: 1.0 μM test compound
T2 construct: purchased Cell signaling
T2 sequence (Q96GD4 whole entry): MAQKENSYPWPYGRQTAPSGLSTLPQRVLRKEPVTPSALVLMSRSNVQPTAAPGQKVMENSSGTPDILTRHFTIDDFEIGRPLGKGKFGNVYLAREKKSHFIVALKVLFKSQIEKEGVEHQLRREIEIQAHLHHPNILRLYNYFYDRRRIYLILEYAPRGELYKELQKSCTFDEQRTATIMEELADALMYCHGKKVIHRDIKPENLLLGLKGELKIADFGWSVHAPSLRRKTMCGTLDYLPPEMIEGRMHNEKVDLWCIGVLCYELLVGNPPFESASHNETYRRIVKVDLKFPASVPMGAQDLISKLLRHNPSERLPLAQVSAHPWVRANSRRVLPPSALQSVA
Outline: (§1)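 Recombinant Aurora A (1 ng) or Aurora B (2.5 ng) incubated with test compound, CHOCKtide (1 μg) and [γ-33P]ATP/ATP at 10 μM (Aurora A) or 40 μM (Aurora B), 30 min at 33 °C. Stopped with phosphoric acid; filter-bound 33P counted; IC50 = half-maximal inhibition.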

VEGFR2 kinase = molecular target: T3, VEGFR2 kinase (Homo sapiens, UniProt P35968); test: VEGFR2 kinase assay (33P incorporation into Poly(Glu-Tyr)); details: 500 nM test compound; read-out: Inhibition at 500 nM (%) VEGFr-2
T3 construct: recombinant N-terminal 6×His-tagged VEGFR2 kinase domain construct expressed by baculovirus; 6xHis (N); made in house
T3 sequence (P35968 834-1162 limits assumed): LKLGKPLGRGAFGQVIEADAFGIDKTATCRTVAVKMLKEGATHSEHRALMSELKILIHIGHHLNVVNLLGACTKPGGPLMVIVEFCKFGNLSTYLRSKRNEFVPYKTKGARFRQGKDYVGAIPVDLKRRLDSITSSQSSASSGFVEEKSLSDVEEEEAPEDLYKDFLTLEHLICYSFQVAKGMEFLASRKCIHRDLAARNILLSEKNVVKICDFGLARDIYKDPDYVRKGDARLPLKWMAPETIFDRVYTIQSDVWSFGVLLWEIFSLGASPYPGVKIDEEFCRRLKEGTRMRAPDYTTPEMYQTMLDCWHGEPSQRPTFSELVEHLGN
Outline: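 Recombinant baculovirus-expressed N-terminal His6-tagged VEGFR2 kinase domain (6.25 ng) phosphorylated poly(Glu-Tyr) 4:1 with 100 μM ATP plus [33P]-γ-ATP in MOPS pH 7.0, 30 °C, 30 min. Test compound was at 500 nM (4% DMSO). Filter-retained radioactivity relative to DMSO control gave % inhibition.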

Aurora A kinase = molecular target: T4, Aurora A kinase (Homo sapiens, UniProt O14965); test: Aurora A kinase assay ([γ-33P]ATP, CHOCKtide substrate); details: for inhibition at 1 µM: 1.0 μM test compound
T4 construct: purchased Upstate
T4 sequence (O14965 1-403): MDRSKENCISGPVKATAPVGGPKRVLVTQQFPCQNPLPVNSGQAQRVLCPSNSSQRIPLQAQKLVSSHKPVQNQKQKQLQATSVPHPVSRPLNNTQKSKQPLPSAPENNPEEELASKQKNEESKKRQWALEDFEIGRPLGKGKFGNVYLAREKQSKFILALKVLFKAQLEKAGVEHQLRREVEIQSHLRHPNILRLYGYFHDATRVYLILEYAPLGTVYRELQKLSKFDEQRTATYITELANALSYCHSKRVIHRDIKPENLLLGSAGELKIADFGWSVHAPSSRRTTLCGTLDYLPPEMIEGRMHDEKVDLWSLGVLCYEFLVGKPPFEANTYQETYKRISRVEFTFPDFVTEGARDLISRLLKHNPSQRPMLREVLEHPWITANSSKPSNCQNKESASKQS
Outline: as §1

Row | inhibition at 0.5 µM (c-Met kinase) | inhibition at 1 µM (Aurora B kinase) | inhibition at 0.5 µM (VEGFR2 kinase) | inhibition at 1 µM (Aurora A kinase) | IC50 (Aurora B kinase) | IC50 (Aurora A kinase) | Compound
1 | 27.3% | 47.1% | 95.8% | 81.7% | 2240 nM | 224 nM | COc1cc(-c2ccc3c(c2)NC(=O)/C3=C\c2[nH]c3c(c2CCC(=O)O)C(=O)CCC3)ccc1O [DCB-70082, (Z)-6-(4-hydroxy-3-methoxyphenyl)-3-((3-carboxyethyl-4-oxo-4,5,6,7-tetrahydro-1H-indol-2-yl)methylene)indolin-2-one]
2 | 29.8% | 12.8% | 23.3% | 13.2% | – | – | CCOC(=O)CCc1c(C=C2C(=S)Nc3ccccc32)[nH]c2c1C(=O)CCC2 [DCB-70083, 3-((3-(3-ethoxy-3-oxopropyl)-4-oxo-4,5,6,7-tetrahydro-1H-indol-2-yl)methylene)indolin-2-thione]
3 | 11.5% | 17.9% | 13.4% | 10.9% | – | – | O=C(O)CCc1c(C=C2C(=S)Nc3ccccc32)[nH]c2c1C(=O)CCC2 [DCB-70084, 3-((3-carboxyethyl-4-oxo-4,5,6,7-tetrahydro-1H-indol-2-yl)methylene)indolin-2-thione]
4 | 25.1% | 10.7% | 25.4% | 11.2% | – | – | CCOC(=O)CCc1c(C=C2C(=S)Nc3cc(Br)ccc32)[nH]c2c1C(=O)CCC2 [DCB-70085, 6-bromo-3-((3-(3-ethoxy-3-oxopropyl)-4-oxo-4,5,6,7-tetrahydro-1H-indol-2-yl)methylene)indolin-2-thione]
5 | 21.6% | 17.8% | 21.9% | 5.8% | – | – | O=C(O)CCc1c(C=C2C(=S)Nc3cc(Br)ccc32)[nH]c2c1C(=O)CCC2 [DCB-70086, 6-bromo-3-((3-carboxyethyl-4-oxo-4,5,6,7-tetrahydro-1H-indol-2-yl)methylene)indolin-2-thione]
6 | 20.9% | 66.2% | 26.3% | 99.7% | 441 nM | 7.3 nM | O=C(O)CCc1c(/C=C2\C(=O)Nc3ccc(S(=O)(=O)N4CCCC4)cc32)[nH]c2c1C(=O)CCC2 [DCB-70087, (Z)-5-(pyrrolidin-1-ylsulfonyl)-3-((3-carboxyethyl-4-oxo-4,5,6,7-tetrahydro-1H-indol-2-yl)methylene)indolin-2-one]
7 | 25.3% | 48.8% | 17.2% | 99.3% | 1870 nM | 28.8 nM | O=C(O)CCc1c(/C=C2\C(=O)Nc3ccc(S(=O)(=O)N4CCOCC4)cc32)[nH]c2c1C(=O)CCC2 [DCB-70088, (Z)-5-morpholinosulfonyl-3-((3-carboxyethyl-4-oxo-4,5,6,7-tetrahydro-1H-indol-2-yl)methylene)indolin-2-one]
8 | 16% | 34.1% | 64.4% | 94.3% | – | 61.2 nM | NS(=O)(=O)c1ccc2c(c1)/C(=C/c1[nH]c3c(c1CCC(=O)O)C(=O)CCC3)C(=O)N2 [DCB-70095, (Z)-5-sulfamoyl-3-((3-carboxyethyl-4-oxo-4,5,6,7-tetrahydro-1H-indol-2-yl)methylene)indolin-2-one]
9 | 8.9% | 15.1% | 44.2% | 38.6% | – | – | CCOC(=O)CCc1c(/C=C2\C(=O)Nc3ccc(NC(=O)c4ccccc4)cc32)[nH]c2c1C(=O)CCC2 [DCB-70096, (Z)-5-benazmido-3-((3-(3-ethoxy-3-oxopropyl)-4-oxo-4,5,6,7-tetrahydro-1H-indol-2-yl)methylene)indolin-2-one]
10 | 14.4% | 14.2% | 62.5% | 64.7% | – | – | O=C(O)CCc1c(/C=C2\C(=O)Nc3ccc(NC(=O)c4ccccc4)cc32)[nH]c2c1C(=O)CCC2 [DCB-70097, (Z)-5-benazmido-3-((3-carboxyethyl-4-oxo-4,5,6,7-tetrahydro-1H-indol-2-yl)methylene)indolin-2-one]
11 | 22.7% | 30% | 79% | 47.5% | – | – | O=C(O)CCc1c(/C=C2\C(=O)Nc3cc(-c4ccc(F)cc4)ccc32)[nH]c2c1C(=O)CCC2 [DCB-70099, (Z)-6-(4-fluorophenyl)-3-((3-carboxyethyl-4-oxo-4,5,6,7-tetrahydro-1H-indol-2-yl)methylene)indolin-2-one]
12 | 26.7% | 17.7% | 73.8% | 38.5% | – | – | O=C(O)CCc1c(/C=C2\C(=O)Nc3cc(-c4cc(F)cc(F)c4)ccc32)[nH]c2c1C(=O)CCC2 [DCB-70101, (Z)-6-(3,5-difluorophenyl)-3-((3-carboxyethyl-4-oxo-4,5,6,7-tetrahydro-1H-indol-2-yl)methylene)indolin-2-one]

Second part, the molecule before the results:

Row | Compound | inhibition at 0.5 µM (c-Met kinase) | inhibition at 1 µM (Aurora B kinase) | inhibition at 0.5 µM (VEGFR2 kinase) | inhibition at 1 µM (Aurora A kinase) | IC50 (Aurora B kinase) | IC50 (Aurora A kinase)
13 | CCOC(=O)CCc1c(/C=C2\C(=O)Nc3cc(-c4ccc(O)c(OC)c4)ccc32)[nH]c2c1C(=O)CCC2 [DCB-70081, (Z)-6-(4-hydroxy-3-methoxyphenyl)-3-((3-(3-ethoxy-3-oxopropyl)-4-oxo-4,5,6,7-tetrahydro-1H-indol-2-yl)methylene)indolin-2-one] | 25.6% | 30.6% | 80% | 27.7% | – | –
14 | CCOC(=O)CCc1c(/C=C2\C(=O)Nc3ccc(NC(=O)Nc4ccc(C)cc4)cc32)[nH]c2c1C(=O)CCC2 [DCB-70091, (Z)-5-(3-p-tolylureido)-3-((3-(3-ethoxy-3-oxopropyl)-4-oxo-4,5,6,7-tetrahydro-1H-indol-2-yl)methylene)indolin-2-one] | -0.5% | 10.8% | 24.6% | 7.6% | – | –
15 | CCOC(=O)CCc1c(/C=C2\C(=O)Nc3ccc(NC(=O)Nc4ccc(OC)cc4)cc32)[nH]c2c1C(=O)CCC2 [DCB-70092, (Z)-5-(3-(4-methoxyphenyl)ureido)-3-((3-(3-ethoxy-3-oxopropyl)-4-oxo-4,5,6,7-tetrahydro-1H-indol-2-yl)methylene)indolin-2-one] | 18.6% | 9.9% | 30.2% | 9.4% | – | –
16 | Cc1ccc(NC(=O)Nc2ccc3c(c2)/C(=C/c2[nH]c4c(c2CCC(=O)O)C(=O)CCC4)C(=O)N3)cc1 [DCB-70093, (Z)-5-(3-p-tolylureido)-3-((3-carboxyethyl-4-oxo-4,5,6,7-tetrahydro-1H-indol-2-yl)methylene)indolin-2-one] | 28.2% | 14.7% | 70.1% | 70.5% | – | –
17 | COc1ccc(NC(=O)Nc2ccc3c(c2)/C(=C/c2[nH]c4c(c2CCC(=O)O)C(=O)CCC4)C(=O)N3)cc1 [DCB-70094, (Z)-5-(3-(4-methoxyphenyl)ureido)-3-((3-carboxyethyl-4-oxo-4,5,6,7-tetrahydro-1H-indol-2-yl)methylene)indolin-2-one] | 18.9% | 15.5% | 79.8% | 75.2% | – | –
18 | CCOC(=O)CCc1c(/C=C2\C(=O)Nc3cc(-c4ccc(F)cc4)ccc32)[nH]c2c1C(=O)CCC2 [DCB-70098, (Z)-6-(4-fluorophenyl)-3-((3-(3-ethoxy-3-oxopropyl)-4-oxo-4,5,6,7-tetrahydro-1H-indol-2-yl)methylene)indolin-2-one] | 27.2% | 19.5% | 20.4% | 4% | – | –
19 | CCOC(=O)CCc1c(/C=C2\C(=O)Nc3cc(-c4cc(F)cc(F)c4)ccc32)[nH]c2c1C(=O)CCC2 [DCB-70100, (Z)-6-(3,5-difluorophenyl)-3-((3-(3-ethoxy-3-oxopropyl)-4-oxo-4,5,6,7-tetrahydro-1H-indol-2-yl)methylene)indolin-2-one] | 13.1% | 13.2% | 17.7% | 9.9% | – | –
20 | CCOC(=O)CCc1c(/C=C2\C(=O)Nc3ccc(NS(=O)(=O)c4ccccc4)cc32)[nH]c2c1C(=O)CCC2 [DCB-70102, (Z)-5-phenylsulfonamido-3-((3-(3-ethoxy-3-oxopropyl)-4-oxo-4,5,6,7-tetrahydro-1H-indol-2-yl)methylene)indolin-2-one] | 33.7% | 74.3% | 68% | 88.8% | 214 nM | 83.5 nM
